These results are taken from patent US11977028B2, “Mechanical-bond-induced exciplex fluorescence” (Northwestern University, priority 2020, dated 2024).

Data set [1] can be described thus: Absorption and photoluminescence spectroscopy in solution. The following applies: for absorption band (higher-energy band of the anthracene moiety) / absorption, vibronic peak of the anthracene moiety (lower-energy): high dilution; for emission band, vibronic peaks of the anthracene moiety: fluorescence spectroscopy, data not shown; for τ (emission lifetime): 405 nm excitation. Format: physicochemical. The source says: The close proximity of the anthracene units in the mechanically interlocked cyclophanes was expected to give rise to remarkable optical properties distinct from those of the free cyclophanes. We explored the absorption and fluorescence properties of all compounds at high dilution (4×10^−7 M) to avoid reabsorption processes^40 and aggregation effects.^17 All of the optical parameters are summarized in Tables 1 and 2. Initially, we explored the influence of the pyridine/pyridinium units on the optical properties of both ^2,6AnBox^4+ and ^9,10AnBox^4+ cyclophanes. The presence of two pyridinium units within the linker dramatically affect the optical properties of the anthracene moiety. Although ^2,6AnBPY (FIG. 5C) and ^9,10AnBPY display^41 characteristic vibronic peaks associated with the anthracene moiety at 290 and 400 nm, ^2,6AnDB^2+ and ^9,10AnDB^2+ display a shift of the band at 290 to 330 nm (FIG. 5A) and the emergence of a new featureless broad band at 450 nm associated with CT from the anthracene moiety to the pyridinium unit. It is noteworthy that phenylene-bridged bipyridyl linkers (ExBIPY) display^35 a single absorption peak at 325 nm in MeCN, while the anthracene moiety leads to the emergence of some push-pull D-A character.
All reagents were purchased from commercial suppliers (Aldrich or Fisher) and used without further purification. Anthracene derivatives, 9,10-bis(4-pyridyl)anthracene (^9.^10AnBPY) and 2,6-bis(4-pyridyl)anthracene (^2,6AnBPY) were synthesized following^1,2 reports in the literature. All reactions and manipulations were carried out under a dry N2 atmosphere using standard Schlenk. Thin-layer chromatography (TLC) was performed on silica gel 60 F254 TLC plates (Merck). Column chromatography was carried out using CombiFlash® Automation Systems (Teledyne ISCO) employing both normal phase (RediSep Rf Gold® Normal-Phase Silica) and reverse phase (RediSep Rf Gold® Reversed-phase C18). […] All the spectra were baseline-corrected with a MeCN blank sample. The photoluminescence spectra of all samples were obtained with a Fluorolog-3 spectrafluorometer (Horiba Jobin Yvon) in a 2-mm quartz cuvette with 3-nm slit width and a front-phase geometry. The time-correlated single photon counting setup is described elsewhere.^3 Nuclear magnetic resonance (NMR) spectra were recorded on a Bruker Avance III 500 and 600 MHz spectrometers, with working frequencies of 500 and 600 MHz (′H NMR) and 125 MHz (^13C NMR), respectively. Chemical shifts are reported in ppm relative to the signals corresponding to the residual non-deuterated solvents (CD3CN: δ1−1=1.94 ppm and δC=1.32 ppm). High-resolution mass spectra (HRMS) were measured on an Agilent 6210 Time of Flight (TOF) LC-MS, using an ESI source, coupled with Agilent 1100 HPLC stack, using direct infusion (0.6 mL min ^−1). The binding constants were determined using this link: website http://supramolecular.org.^4

A short description of data set [2]: 1H NMR titration of guests into the ^2,6AnBox^4+ cavity (binding constant). Conditions: 1H NMR titration in CD3CN; for binding constant Ka: high concentration of salt (saturated with KPF6, 140 mM); for association constant Ka: without salt. An excerpt:
The cavity of ^2,6AnBox^4+ is able to bind an anthracene molecule in a face-to-face manner as a result of [π . . . π] interactions. The formation of anthracene⊂^2,6AnBox^4+ (An⊂^2,6AnBox^4+) was confirmed by ^1H NMR titration in CD3CN. […] Further evidence for the formation of the 1:1 complex (anthracene⊂^2,6AnBox^4+) came from XRD analysis. […] It is remarkable that, upon addition of the anthracene guest to the cavity of ^2,6AnBox^4+, a tubular superstructure is formed along the c-axis, whereas along the b-axis, face-to-face [π . . . π] stacks form between the anthracene units. Apparently, the long-range [π . . . π] distances of 3.5 Å between the anthracene units are superstructure-directing in anthracene⊂^2,6AnBox^4+ instead of the anthracene-pyridinium DA interactions. The formation of the anthracene⊂^2,6AnBox^4+ complex implies that [π . . . π] interactions between the anthracene units can be sufficient to overcome the Coulombic repulsion and form the homo[2]catenane, ^2,6AnHC.8PF6.
Preparation of ^2,6AnHC.8PF6 was achieved following two synthetic procedures which consisted of mixing ^2,6AnBox.4PF6 with its precursors ^2,6AnDB.2PF6, and ^2,6AnBPY in the absence (Protocol I) or presence (Protocol II) of tetrabutylammonium hexafluorophosphate (TBAPF6). See Scheme 6. Our attempts to prepare ^2,6AnHC.8PF6 following Protocol I produced very low yields (<5%) of the catenane.
In order to evaluate whether the addition of salt would enhance the synthesis of the rigid ^2,6AnHC.8PF6 homo[2]catenane, we investigated the effects of the addition of tetrabutylammonium hexafluorophosphate (TBAPF6) salt on the formation of the ^2,6AnDB^2+⊂^2,6AnBox^4+ inclusion complex. […] Remarkably, the change in color of the solution from yellow to red implies^38 an increase in the strength of the ^2,6AnDB^2+⊂^2,6AnBox^4+ host-guest complex. In order to estimate the magnitude of the association constant between ^2,6AnDB^2+ and ^2,6AnBox^4+, we prepared (FIG. 2A-2C, Scheme 8) an anthracene-based dicationic model DM^2+. […] Consequently, the efficiency of the catenane synthesis is also found to be sensitive to the addition of TBAPF6. At a salt concentration of 250 mM, the homo[2]catenane ^2,6AnHC.8PF6 was prepared by mixing ^2,6AnBox.4PF6, ^2,6AnDB.2PF6, and ^2,6AnBPY in a 1:2:2 molar ratio in MeCN resulting in an isolated yield of up to 40%. See Scheme 2. The ^1H NMR spectrum of ^2,6AnHC^8+ was recorded at room temperature in CD3CN. Only three signals are observed which can be assigned to the pyridinium, methylene, and phenylene protons. All other resonances associated with the anthracene units disappear or are broadened at room temperature. In the temperature dependent 41 NMR spectra (data not shown), the signals for the anthracene protons reappear at low temperature and have been assigned based on 2D ROESY NMR spectroscopic measurements. These experiments confirm the dynamic nature of the homo[2]catenane in which the two mechanically interlocked rings undergo relative co-conformational changes at room temperature. The catenane was also characterized by high-resolution mass spectrometry (HR-MS). A characteristic peak corresponding to [M-3 PF6]^3+ is present in the mass spectrum (data no shown) at m/z of 823.7819 which compares well with the calculated value for m/z of 823.7814.
All reagents were purchased from commercial suppliers (Aldrich or Fisher) and used without further purification. Anthracene derivatives, 9,10-bis(4-pyridyl)anthracene (^9.^10AnBPY) and 2,6-bis(4-pyridyl)anthracene (^2,6AnBPY) were synthesized following^1,2 reports in the literature. All reactions and manipulations were carried out under a dry N2 atmosphere using standard Schlenk. Thin-layer chromatography (TLC) was performed on silica gel 60 F254 TLC plates (Merck). Column chromatography was carried out using CombiFlash® Automation Systems (Teledyne ISCO) employing both normal phase (RediSep Rf Gold® Normal-Phase Silica) and reverse phase (RediSep Rf Gold® Reversed-phase C18). […]

For data set [3] the following is noted: reported in the literature; cited from earlier work.
A further data set relates to MIA PACA2 cancer cells. The experiment in a line: Cell growth / toxicity by phase contrast imaging over 48 hours. The following applies: any concentration tested. Format: cell-based. The protocol: Cells were cultured for 4 hours then treated with the compounds at a range of concentrations. Upon treatment, cells were placed in a BioTek LionheartFX system, where they were imaged every 20 minutes for 48 hours, under standard culture conditions (37° C., 5% CO2). Phase contrast images were processed and analyzed with BioTek Gen5 analysis software to identify cell number at the start and end of the culture time. There was no significant difference in percent growth either between the two compounds or between the different concentrations and the untreated (0 mM) control.
Cells were grown in standard DMEM (supplemented with 10% Fetal Bovine Serum and 1% Penicillin-Streptomycin, supplier=Corning). Cells were seeded into imaging coverglass chamber 40 hours prior to treatment. Compounds were resuspended in deionized H2O then diluted to the final concentration in media. Cells were treated with compounds for 6 hours prior to imaging.

For `BrCc1ccc(C[n+]2ccc(-c3c4ccccc4c(-c4cc[n+](Cc5ccc(CBr)cc5)cc4)c4ccccc34)cc2)cc1` [^9,10AnDB^2+], in data set [1] (MeCN), the “charge transfer (CT) absorption band” value was 450 nm and the “absorption band (higher-energy band of the anthracene moiety)” value was determined as 330 nm.
`c1cc(-c2ccc3cc4cc(-c5ccncc5)ccc4cc3c2)ccn1` [^2,6AnBPY, 2,6-bis(4-pyridyl)anthracene, reference compound]: in data set [1] (MeCN), the “absorption band (higher-energy band of the anthracene moiety)” value was determined as 290 nm and the “absorption, vibronic peak of the anthracene moiety (lower-energy)” value is 400 nm. Besides, the “emission band, vibronic peaks of the anthracene moiety” value in data set [1] is recorded as 440 nm.
Regarding `c1ccc(C[n+]2ccc(-c3ccc4cc5cc(-c6ccncc6)ccc5cc4c3)cc2)cc1` [MM^+], in data set [2], the “binding constant Ka” value was found to be 540 M⁻¹ and the “association constant Ka” value turned out to be 102 M⁻¹.
The corresponding values for `c1ccc(C[n+]2ccc(-c3ccc4cc5cc(-c6cc[n+](Cc7ccccc7)cc6)ccc5cc4c3)cc2)cc1` [DM^2+] are 611 M⁻¹ and 40 M⁻¹.
As to `c1ccc2cc3ccccc3cc2c1` [anthracene, reference compound], the “association constant Ka” value in data set [2] came out at 125 M⁻¹. Moreover, the emission lifetime in data set [3] is reported as approximately 18 ns.
As for `c1ccc2c3c4ccccc4c(c2c1)-c1cc[n+](cc1)Cc1ccc(cc1)C[n+]1ccc(cc1)-c1c2ccccc2c(c2ccccc12)-c1cc[n+](cc1)Cc1ccc(cc1)C[n+]1ccc-3cc1` [^9,10AnBox^4+], the “Φ (PL quantum yield)” value in data set [1] (4 × 10^−7 M, MeCN) stood at 1.3%. Also, the λabs in data set [1] (4 × 10^−7 M, MeCN) is recorded as 415 nm; in data set [1] (DMF, 4 × 10^−7 M), 402 nm; in data set [1] (EtOH, 4 × 10^−7 M), 409 nm; in data set [1] (H2O, 4 × 10^−7 M), 419 nm; in data set [1] (Me2SO, 4 × 10^−7 M), 403 nm; in data set [1] (MeCN, 4 × 10^−7 M (Table 2)) it was 410 nm. In addition, the λabs in data set [1] (MeOH, 4 × 10^−7 M) came out at 402 nm. For the same molecule, the λem was determined as 566 nm in data set [1] (4 × 10^−7 M, MeCN); 576 nm in data set [1] (DMF, 4 × 10^−7 M); 574 nm in data set [1] (EtOH, 4 × 10^−7 M); 566 nm in data set [1] (H2O, 4 × 10^−7 M); 570 nm in data set [1] (Me2SO, 4 × 10^−7 M); 566 nm in data set [1] (MeCN, 4 × 10^−7 M (Table 2)). Moreover, in data set [1] (MeOH, 4 × 10^−7 M), the λem came out at 565 nm. Besides, the “τ (emission lifetime)” value in data set [1] (4 × 10^−7 M, MeCN) is recorded as 8.7 ns. Further, the “Stokes shifts (δ)” value in data set [1] (DMF, 4 × 10^−7 M) amounted to 6793 cm⁻¹; in data set [1] (EtOH, 4 × 10^−7 M) it was 6502 cm⁻¹; in data set [1] (H2O, 4 × 10^−7 M), 6199 cm⁻¹; in data set [1] (Me2SO, 4 × 10^−7 M), 6966 cm⁻¹; in data set [1] (MeCN, 4 × 10^−7 M (Table 2)), 6371 cm⁻¹; in data set [1] (MeOH, 4 × 10^−7 M), 6282 cm⁻¹. In addition, the λexc in data set [1] (DMF, 4 × 10^−7 M) is listed as 414 nm; in data set [1] (EtOH, 4 × 10^−7 M), 418 nm; in data set [1] (H2O, 4 × 10^−7 M), 419 nm; in data set [1] (Me2SO, 4 × 10^−7 M), 408 nm; in data set [1] (MeCN, 4 × 10^−7 M (Table 2)), 416 nm; in data set [1] (MeOH, 4 × 10^−7 M) it was 417 nm.
Regarding `c1ccc2c(-c3ccncc3)c3ccccc3c(-c3ccncc3)c2c1` [^9,10AnBPY, 9,10-bis(4-pyridyl)anthracene, reference compound], in data set [1] (MeCN), the “absorption band (higher-energy band of the anthracene moiety)” value is on record as 290 nm and the “absorption, vibronic peak of the anthracene moiety (lower-energy)” value came out at 400 nm. Further, in data set [1], the “emission band, vibronic peaks of the anthracene moiety” value came out at 440 nm.
With `[Cl-].[Cl-].[Cl-].[Cl-].c1cc2ccc1C[n+]1ccc(cc1)-c1ccc3cc4cc(ccc4cc3c1)-c1cc[n+](cc1)Cc1ccc(cc1)C[n+]1ccc(cc1)-c1ccc3cc4cc(ccc4cc3c1)-c1cc[n+](cc1)C2` [^2,6AnBox⋅4Cl], in the data set on MIA PACA2 cancer cells, the “toxicity to the cells” value was “Neither the catenane (^2,6AnHC.8Cl) nor the cyclophane (^2,6AnBox⋅4Cl) are toxic to the cells at any concentration tested”.
As to `BrCc1ccc(C[n+]2ccc(-c3ccc4cc5cc(-c6cc[n+](Cc7ccc(CBr)cc7)cc6)ccc5cc4c3)cc2)cc1` [^2,6AnDB^2+], the “association constant Ka” value in data set [2] is 42 M⁻¹. In data set [1] (4 × 10^−7 M, MeCN), the “Φ (PL quantum yield)” value is reported as 7.0%, the λabs was found to be 453 nm, the λem is recorded as 542 nm and the “τ (emission lifetime)” value is reported as 10 ns. In addition, in data set [1] (MeCN), the “charge transfer (CT) absorption band” value stood at 450 nm and the “absorption band (higher-energy band of the anthracene moiety)” value stood at 330 nm. In data set [1] (from high concentration to high dilution (10^−8 M)), the “concentration dependence of excimer/exciplex emission” value is on record as “absence of excimer emission at high concentration”.
